Assay [1] concerns the target FAAH (Homo sapiens (Human), UniProt O00519). The experiment in a line: In vitro competitive activity-based protein profiling, human proteomes (prefrontal cortex or PC3 cell membrane fractions). The class given is biochemical. To be noted: 1 μM, human proteome; for inhibition at 1 µM: read-out: FAAH % inh. 1 μM (human). Summed up:
(§1)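 Activity of MAGL and FAAH was quantified from fluorescent gel band intensities. Beforehand, inhibitors at several concentrations competed against subsequent probe labelling (FP-Rh, JW912 or HT-01) in species-matched proteomes, each step 30 min at 37° C.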

Assay [2] has as its target MAGL (Homo sapiens (Human), UniProt Q99685). Described as above. The assay is classed as biochemical. Particulars: 1 μM, human proteome; for inhibition at 1 µM: read-out: MAGL % inh. 1 μM (human). An outline of the steps:
as §1

The target of assay [3] is T1, FAAH (Mus musculus (Mouse), UniProt O08914). Nature of the assay: In vitro competitive activity-based protein profiling, mouse proteomes (brain membrane fraction or cell lysates). To be noted: mouse proteome; for inhibition at 1 µM: read-out: FAAH % inh. 1 μM (mouse). The class given is biochemical. Summed up:
as §1

Assay [4] addresses T2, MAGL (Mus musculus (Mouse), UniProt O35678). The assay is described as above. The assay is classed as biochemical. To be noted: mouse proteome; for inhibition at 1 µM: read-out: MAGL % inh. 1 μM (mouse). An outline of the steps:
as §1

The target of assay [5] is T1, FAAH. The experiment in a line: Mouse brain proteomes from inhibitor treated mice (oral gavage, sacrificed 4 h after administration). The assay is classed as in vivo. To be noted: 5 mg/kg oral gavage. The procedure: (§2) Preparation of Mouse Brain Proteomes from Inhibitor Treated Mice.
(§3) Inhibitors were administered to wild-type C57B1/6J by oral gavage in a vehicle of polyethylene glycol. Each animal was sacrificed 4 h following administration and brain proteomes were prepared and analyzed according to previously established methods (See Niphakis, M. J., et al. (2011) ACS Chem. Neurosci. and Long, J. Z., et al. Nat. Chem. Biol. 5:37-44).

Assay [6] has as its target T2, MAGL. The assay is described as above. The assay is classed as in vivo. To be noted: 5 mg/kg oral gavage. The procedure:
as §2, §3

Bounds are passed on as bounds.

Chain of MAGL (Homo sapiens (Human), UniProt Q99685) (Q99685 whole entry): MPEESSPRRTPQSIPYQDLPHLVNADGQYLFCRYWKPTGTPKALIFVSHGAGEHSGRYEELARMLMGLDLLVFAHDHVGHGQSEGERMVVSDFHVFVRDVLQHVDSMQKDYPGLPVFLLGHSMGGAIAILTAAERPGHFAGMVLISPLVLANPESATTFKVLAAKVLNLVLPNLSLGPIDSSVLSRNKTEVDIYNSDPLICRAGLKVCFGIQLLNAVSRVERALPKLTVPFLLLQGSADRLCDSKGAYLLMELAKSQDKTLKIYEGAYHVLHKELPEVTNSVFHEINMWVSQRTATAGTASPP
T2 sequence (O35678 whole entry): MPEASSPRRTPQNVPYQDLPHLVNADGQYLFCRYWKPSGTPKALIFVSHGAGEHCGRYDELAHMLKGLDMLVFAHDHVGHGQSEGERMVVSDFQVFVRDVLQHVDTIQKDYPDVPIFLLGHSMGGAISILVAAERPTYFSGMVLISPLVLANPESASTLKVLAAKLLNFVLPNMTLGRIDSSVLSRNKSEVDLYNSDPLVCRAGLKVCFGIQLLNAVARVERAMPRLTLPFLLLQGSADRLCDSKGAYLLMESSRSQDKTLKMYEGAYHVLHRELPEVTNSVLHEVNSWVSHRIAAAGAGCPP
Chain of FAAH (Homo sapiens (Human), UniProt O00519) (O00519 whole entry): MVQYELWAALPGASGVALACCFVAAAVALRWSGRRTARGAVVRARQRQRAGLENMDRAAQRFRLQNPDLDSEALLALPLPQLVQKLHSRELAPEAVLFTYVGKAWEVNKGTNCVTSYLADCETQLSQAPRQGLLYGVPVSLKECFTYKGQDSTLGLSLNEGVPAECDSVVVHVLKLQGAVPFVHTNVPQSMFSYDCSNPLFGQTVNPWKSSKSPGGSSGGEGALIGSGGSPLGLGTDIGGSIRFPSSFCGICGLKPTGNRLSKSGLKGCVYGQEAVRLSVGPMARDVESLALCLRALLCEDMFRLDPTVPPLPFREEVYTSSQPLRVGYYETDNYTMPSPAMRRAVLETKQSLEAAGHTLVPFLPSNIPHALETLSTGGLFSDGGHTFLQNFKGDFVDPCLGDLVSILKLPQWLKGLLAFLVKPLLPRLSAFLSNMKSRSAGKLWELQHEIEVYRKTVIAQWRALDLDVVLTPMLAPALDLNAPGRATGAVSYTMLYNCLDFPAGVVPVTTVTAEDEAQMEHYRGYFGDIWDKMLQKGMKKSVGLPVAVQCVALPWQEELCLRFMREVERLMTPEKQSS
T1 sequence (O08914 whole entry): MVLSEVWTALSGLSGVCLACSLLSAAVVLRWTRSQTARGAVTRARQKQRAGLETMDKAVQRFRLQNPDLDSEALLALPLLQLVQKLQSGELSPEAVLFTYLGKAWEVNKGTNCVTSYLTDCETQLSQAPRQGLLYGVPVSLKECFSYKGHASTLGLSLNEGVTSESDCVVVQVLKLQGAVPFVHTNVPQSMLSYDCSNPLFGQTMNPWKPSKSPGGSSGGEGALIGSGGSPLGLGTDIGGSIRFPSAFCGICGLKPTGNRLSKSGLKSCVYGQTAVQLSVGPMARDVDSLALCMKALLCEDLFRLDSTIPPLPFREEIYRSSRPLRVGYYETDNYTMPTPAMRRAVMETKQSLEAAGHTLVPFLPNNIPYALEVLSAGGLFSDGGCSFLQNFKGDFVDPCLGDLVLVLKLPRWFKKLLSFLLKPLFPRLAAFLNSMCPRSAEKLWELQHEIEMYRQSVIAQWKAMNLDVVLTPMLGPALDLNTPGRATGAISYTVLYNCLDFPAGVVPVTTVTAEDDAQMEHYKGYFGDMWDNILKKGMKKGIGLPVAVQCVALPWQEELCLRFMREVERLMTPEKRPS

Regarding `CS(=O)(=O)Nc1ccn(C(=O)N2C[C@H]3C[C@@H](N(CC(=O)O)Cc4cc(Cl)ccc4C(F)(F)F)C[C@H]3C2)n1` [Example 93, N-(5-Chloro-2-(trifluoromethyl)benzyl)-N-((3aR,5r,6aS)-2-(3-(methylsulfonamido)-1H-pyrazole-1-carbonyl)octahydrocyclopenta[c]pyrrol-5-yl)glycine], the “FAAH % inh. 1 μM (human)” value at FAAH [1] is “D (% inhibition is greater than or equal to 0% and less than 25%)”. In addition, on MAGL [2], the “MAGL % inh. 1 μM (human)” value is “A (% inhibition is greater than or equal to 75%)”. Moreover, the “FAAH % inh. 1 μM (mouse)” value at FAAH [3] was “D (% inhibition is greater than or equal to 0% and less than 25%)”. The “MAGL % inh. 1 μM (mouse)” value on MAGL [4] is on record as “A (% inhibition is greater than or equal to 75%)”. For the same compound, the “FAAH % inh. 5 mg/kg (mouse)” value on FAAH [5] was “D (% inhibition is greater than or equal to 0% and less than 25%)”. For the same compound, the “MAGL % inh. 5 mg/kg (mouse)” value at MAGL [6] was “D (% inhibition is greater than or equal to 0% and less than 25%)”.

In the case of `CN(Cc1ccc(C(F)(F)F)cc1N1CCOCC1)C1(C)CCN(C(=O)n2ccc(NS(C)(=O)=O)n2)CC1` [Example 94, N-(1-(4-Methyl-4-(methyl(2-morpholino-4-(trifluoromethyl)benzyl)amino)piperidine-1-carbonyl)-1H-pyrazol-3-yl)methanesulfonamide], the inhibition at 1 µM on FAAH [1] was 0 to 25%; at MAGL [2], above 75%; on FAAH [3] it was 0 to 25%; at MAGL [4], above 75%. The “FAAH % inh. 5 mg/kg (mouse)” value at FAAH [5] was “D (% inhibition is greater than or equal to 0% and less than 25%)”. Also, the “MAGL % inh. 5 mg/kg (mouse)” value at MAGL [6] is listed as “A (% inhibition is greater than or equal to 75%)”.

Take `CS(=O)(=O)Nc1ccn(C(=O)N2CCC(Oc3ccc(C(F)(F)F)cc3-c3nnco3)CC2)n1` [Example 96, N-(1-(4-(2-(1,3,4-Oxadiazol-2-yl)-4-(trifluoromethyl)phenoxy)piperidine-1-carbonyl)-1H-pyrazol-3-yl)methanesulfonamide]: the inhibition at 1 µM on FAAH [1] was 0 to 25%; on MAGL [2], above 75%; on FAAH [3] it was 0 to 25%; at MAGL [4], above 75%. In addition, the “FAAH % inh. 5 mg/kg (mouse)” value at FAAH [5] was “D (% inhibition is greater than or equal to 0% and less than 25%)”. Moreover, the “MAGL % inh. 5 mg/kg (mouse)” value on MAGL [6] was “D (% inhibition is greater than or equal to 0% and less than 25%)”.

Turning to `CS(=O)(=O)Nc1ccn(C(=O)N2CCC(Oc3ccc(C(F)(F)F)cc3-n3cccn3)CC2)n1` [Example 98, N-(1-(4-(2-(1H-Pyrazol-1-yl)-4-(trifluoromethyl)phenoxy)piperidine-1-carbonyl)-1H-pyrazol-3-yl)methanesulfonamide], the inhibition at 1 µM at FAAH [1] was 0 to 25%; on MAGL [2], above 75%; on FAAH [3] it was 0 to 25%; on MAGL [4] it was above 75%. Besides, on FAAH [5], the “FAAH % inh. 5 mg/kg (mouse)” value was “D (% inhibition is greater than or equal to 0% and less than 25%)”. The “MAGL % inh. 5 mg/kg (mouse)” value on MAGL [6] was “D (% inhibition is greater than or equal to 0% and less than 25%)”.

As to `CC(=O)N(Cc1ccc(C(F)(F)F)cc1N1CCCC1)C1(C)CCN(C(=O)n2ccc(NS(C)(=O)=O)n2)CC1` [Example 103, N-(4-Methyl-1-(3-(methylsulfonamido)-1H-pyrazole-1-carbonyl)piperidin-4-yl)-N-(2-(pyrrolidin-1-yl)-4-(trifluoromethyl)benzyl)acetamide], the inhibition at 1 µM on FAAH [1] was 0 to 25%; at MAGL [2], above 75%; on FAAH [3], 0 to 25%; at MAGL [4], above 75%. The “FAAH % inh. 5 mg/kg (mouse)” value on FAAH [5] is “D (% inhibition is greater than or equal to 0% and less than 25%)”. Also, the “MAGL % inh. 5 mg/kg (mouse)” value on MAGL [6] was “D (% inhibition is greater than or equal to 0% and less than 25%)”.

Turning to `CN(Cc1ccc(C(F)(F)F)cc1N1CCN(C(=O)CO)CC1)C1(C)CCN(C(=O)n2ccc(NS(C)(=O)=O)n2)CC1` [Example 104, N-(1-(4-((2-(4-(2-Hydroxyacetyl)piperazin-1-yl)-4-(trifluoromethyl)benzyl)(methyl)amino)-4-methylpiperidine-1-carbonyl)-1H-pyrazol-3-yl)methanesulfonamide], the inhibition at 1 µM on FAAH [1] was 0 to 25%; on MAGL [2], above 75%; on FAAH [3], 0 to 25%; on MAGL [4], above 75%. Moreover, the “FAAH % inh. 5 mg/kg (mouse)” value on FAAH [5] is “D (% inhibition is greater than or equal to 0% and less than 25%)”. The “MAGL % inh. 5 mg/kg (mouse)” value on MAGL [6] is “D (% inhibition is greater than or equal to 0% and less than 25%)”.

In the case of `CC(=O)Nc1ccn(C(=O)N2CCN(Cc3ccc(Cl)cc3OCCCC(=O)O)CC2)n1` [Example 106, 4-(2-((4-(3-Acetamido-1H-pyrazole-1-carbonyl)piperazin-1-yl)methyl)-5-chlorophenoxy)butanoic acid], the inhibition at 1 µM on FAAH [1] was 0 to 25%; at MAGL [2] it was above 75%; on FAAH [3] it was 0 to 25%; at MAGL [4], above 75%. The “FAAH % inh. 5 mg/kg (mouse)” value at FAAH [5] is “D (% inhibition is greater than or equal to 0% and less than 25%)”. In addition, the “MAGL % inh. 5 mg/kg (mouse)” value at MAGL [6] is “D (% inhibition is greater than or equal to 0% and less than 25%)”.

In the case of `CC(=O)Nc1ccn(C(=O)N2CCN(Cc3ccc(Cl)cc3NCC(=O)O)CC2)n1` [Example 108, (2-((4-(3-Acetamido-1H-pyrazole-1-carbonyl)piperazin-1-yl)methyl)-5-chlorophenyl)glycine], the inhibition at 1 µM on FAAH [1] is 0 to 25%; at MAGL [2] it was above 75%; on FAAH [3], 0 to 25%; on MAGL [4], above 75%. Besides, the “FAAH % inh. 5 mg/kg (mouse)” value on FAAH [5] is “D (% inhibition is greater than or equal to 0% and less than 25%)”. For the same compound, on MAGL [6], the “MAGL % inh. 5 mg/kg (mouse)” value was “D (% inhibition is greater than or equal to 0% and less than 25%)”.

Turning to `CC(=O)Nc1ccn(C(=O)N2CC3CN(Cc4cccc(C(F)(F)F)c4)CC3C2)n1` (stereo not drawn) [Example 112, N-(1-(5-(3-(Trifluoromethyl)benzyl)octahydropyrrolo[3,4-c]pyrrole-2-carbonyl)-1H-pyrazol-3-yl)acetamide], the inhibition at 1 µM at FAAH [1] was 25 to 50%; on MAGL [2] it was above 75%; on FAAH [3] it was above 75%; on MAGL [4], above 75%. On FAAH [5], the “FAAH % inh. 5 mg/kg (mouse)” value is on record as “A (% inhibition is greater than or equal to 75%)”. For the same compound, the “MAGL % inh. 5 mg/kg (mouse)” value at MAGL [6] is recorded as “A (% inhibition is greater than or equal to 75%)”.

In the case of `CS(=O)(=O)Nc1ccn(C(=O)N2CCN(Cc3ccc(Cl)c(N4CC[C@H](F)C4)c3)CC2)n1` [Example 117, (S)-N-(1-(4-(4-Chloro-3-(3-fluoropyrrolidin-1-yl)benzyl)piperazine-1-carbonyl)-1H-pyrazol-3-yl)methanesulfonamide], the inhibition at 1 µM at FAAH [1] was 0 to 25%; at MAGL [2], above 75%; on FAAH [3], 0 to 25%; at MAGL [4], above 75%. The “FAAH % inh. 5 mg/kg (mouse)” value on FAAH [5] was “D (% inhibition is greater than or equal to 0% and less than 25%)”. For the same compound, on MAGL [6], the “MAGL % inh. 5 mg/kg (mouse)” value was “B (% inhibition is greater than or equal to 50% and less than 75%)”.

Consider `CC(=O)Nc1ccn(C(=O)N2CC[C@H](Oc3ccc(C(N)=O)c(C(F)(F)F)c3)[C@H](F)C2)n1` [Example 118, 4-(((3R,4S)-1-(3-Acetamido-1H-pyrazole-1-carbonyl)-3-fluoropiperidin-4-yl)oxy)-2-(trifluoromethyl)benzamide], for which the inhibition at 1 µM at FAAH [1] was 0 to 25%; at MAGL [2], above 75%; at FAAH [3], 0 to 25%; at MAGL [4], above 75%. For the same compound, the “FAAH % inh. 5 mg/kg (mouse)” value on FAAH [5] is “D (% inhibition is greater than or equal to 0% and less than 25%)”. Further, on MAGL [6], the “MAGL % inh. 5 mg/kg (mouse)” value was “D (% inhibition is greater than or equal to 0% and less than 25%)”.

On to `CS(=O)(=O)Nc1ccn(C(=O)N2CCN(Cc3ccc(C(F)(F)F)c(N4CC[C@H](F)C4)c3)CC2)n1` [Example 119, (S)-N-(1-(4-(3-(3-Fluoropyrrolidin-1-yl)-4-(trifluoromethyl)benzyl)piperazine-1-carbonyl)-1H-pyrazol-3-yl)methanesulfonamide], for which the inhibition at 1 µM on FAAH [1] was 0 to 25%; on MAGL [2], above 75%; on FAAH [3], 0 to 25%; at MAGL [4], above 75%. Further, the “FAAH % inh. 5 mg/kg (mouse)” value at FAAH [5] is “D (% inhibition is greater than or equal to 0% and less than 25%)”. In addition, at MAGL [6], the “MAGL % inh. 5 mg/kg (mouse)” value is “A (% inhibition is greater than or equal to 75%)”.

On to `CC(=O)Nc1ccn(C(=O)N2CCC3(CCN(Cc4ccc(C(N)=O)c(C(F)(F)F)c4)C3)CC2)n1` [Example 125, 4-((8-(3-Acetamido-1H-pyrazole-1-carbonyl)-2,8-diazaspiro[4.5]decan-2-yl)methyl)-2-(trifluoromethyl)benzamide], for which the inhibition at 1 µM at FAAH [1] is 0 to 25%; on MAGL [2], above 75%; at FAAH [3], 0 to 25%; on MAGL [4] it was above 75%. On FAAH [5], the “FAAH % inh. 5 mg/kg (mouse)” value was “D (% inhibition is greater than or equal to 0% and less than 25%)”. In addition, the “MAGL % inh. 5 mg/kg (mouse)” value on MAGL [6] was “D (% inhibition is greater than or equal to 0% and less than 25%)”.

These data come from patent US11149037B2, “Pyrazole MAGL inhibitors” (H. Lundbeck A/S, priority 2017, dated 2021).
